Source: patent publication US6965035B1, “Compacted forms of halogenated hydantoins” (priority 2002, dated 2005)

Tests used:
Type in all cases: physicochemical
[1] = Dissolution of granules or tablets in swimming pool skimmer basket under recirculated pool water
Description: A swimming pool skimmer basket was divided into two halves by means of a simple plastic partition placed across the basket diameter. One half of the basket had 50 grams of pure (wax-free) DBDMH granules placed in it. In the other half of the skimmer basket was placed 50 grams of DBDMH/1 wt % MPP-611 wax granules. […] The basket, containing both sets of granules, was introduced to the skimmer of an above-ground pool. Swimming pool water was pumped past the granules in the skimmer basket by means of the pool recirculation pump. The flow rate was around 30 gallons per minute (gpm) and the water temperature was 60° F. (15.5° C.). After 6 hours, the pump was turned off and the skimmer basket containing the partially-dissolved granules was removed. The granules were removed from their respective halves of the skimmer basket and placed in crystallizing dishes to dry overnight. Each set of granules was reweighed. The weight of the undissolved portion was subtracted from the initial weight, and the amount dissolved (the difference) was expressed in terms of % dissolved (the relative dissolution rate). Table 5 lists the relative amount dissolved for both sets of granules. The procedures described in Example 4 were repeated using pure (wax-free) DBDMH granules and DBDMH/2 wt % MPP-611 wax granules. The water temperature was 66° F. (19° C.). Table 5 lists the relative amount dissolved for both sets of granules. The skimmer basket setup described in Example 4 was used. In one half of the basket, tablets of DBDMH/3 wt % MPP-611 wax (5×24 g; total weight, 120 g; each tablet is 1 inch in diameter) were placed an equal distance apart from each other. In the other half of the basket, tablets of pure (wax-free) 1,3-bromochloro-5,5-dimethylhydantoin (BCDMH; 5×20 g; total weight, 100 g) were similarly arranged. Both sets of tablets were one inch in diameter, so the effective surface area exposed was approximately the same for each set of tablets. The skimmer basket containing the tablets was placed into the skimmer of an above-ground swimming pool. Pool water was pumped past the tablets in the skimmer basket by means of the pool recirculation pump. The flow rate was around 30 gpm, the water temperature was 82.1° F. (27.8° C.), and water was recirculated for 16 hours. The tablets were dried and re-weighed. The weight of the undissolved portion was subtracted from the initial weight, and the amount dissolved (the difference) was expressed in terms of % dissolved (the relative dissolution rate). The amount of product dissolved was 75.5 g for the BCDMH tablets and 13.4 g for the DBDMH/3 wt % MPP-611 wax tablets. The BCDMH tablets dissolved at a rate 5.6 times faster (based on weight dissolved) than the DBDMH/3 wt % MPP-611 wax tablets. Based on the respective solubility of wax-free DBDMH and BCDMH powders, a relative dissolution factor of about 2 would have been expected (with the BCDMH dissolving faster).

[2] = Peak load tolerance test of granules (Sintech 1/S compression apparatus); settings: 3.5–5 mesh cut of granules; average of ten runs; standard deviation in parentheses
Method: To minimize size effects, a 3.5–5 mesh cut of the granulated material was used in this experiment. Peak load tests were performed on DBDMH granules without wax, with 1 wt % wax, and with 2 wt % wax. The wax in both instances was micronized polyethylene wax (MPP-611). Granules of approximately the same size were selected by visual inspection; measurements of the thickness of the granules were not made because of the very irregular shapes of the granules. Peak load tolerance tests were performed utilizing a Sintech® 1/S compression apparatus (MTS Systems Corporation, Edenprairie, Minn.) equipped with Testworks software. The apparatus included a horizontal circular-shaped load cell interfaced with a computer, a digital micrometer also interfaced with the computer, and a vertical screw-driven piston disposed above the load cell and adapted to apply a downward force perpendicular to the load cell. Each granule was placed on its edge on the load cell with the piston in contact with at least a part of the upper edge of the granule. The piston often could not contact the entire upper edge of the granule due the irregular morphology of the granule. […] At the same time, the load cell continuously measured the downward force being applied to the granule, and the input of such measurements was transmitted to the computer. […]

[3] = Specific surface area of granules by nitrogen adsorption BET technique; settings: 3.5–5 mesh granules, material from recycle compaction (Runs 1–3)
Method: To minimize size effects, a 3.5–5 mesh cut of the granulated material was used in this experiment. The material used in Runs 1–3 were from recycle compaction, and the material used in Run 4 was from first-run compaction. The surface area of the granules was determined by the well-known nitrogen adsorption BET technique. The BET technique consists of (1) removing adsorbed gases from the sample with heat and vacuum, (2) adsorbing a mono-layer of nitrogen on the surface at liquid nitrogen temperature, (3) measuring the amount of adsorbed nitrogen, and (4) calculating the total surface area of the sample from an assumed cross-sectional area of nitrogen molecules. The total surface area was divided by the sample weight to yield the specific surface area. Specific surface area is defined as the exposed surface area of 1 gram of the sample tested. A Coulter Model 3100 instrument was used.

SMILES: CC1(C)C(=O)N(Cl)C(=O)N1Br [BCDMH tablets (no wax), 1,3-bromochloro-5,5-dimethylhydantoin]
- Amount dissolved ([1]; 1 inch tablets, about 30 gpm, water 82.1° F. (27.8° C.), 16 hours (text Example 6)): 75.5%
- Amount of product dissolved ([1]; tablets, 5×20 g BCDMH or 5×24 g DBDMH/wax, about 30 gpm, 82.1° F., 16 hours): 75.5 g
- Dissolution rate relative to DBDMH/3 wt % MPP-611 wax tablets (based on weight dissolved) ([1]; tablets, 82.1° F., 16 hours): 5.6 times faster

SMILES: CC1(C)C(=O)N(Br)C(=O)N1Br [DBDMH, wax-free, 1,3-dibromo-5,5-dimethylhydantoin]
- Amount dissolved ([1]; 50 g granules >8 U.S. mesh, about 30 gpm, water 60° F. (15.5° C.), 6 hours (text Example 4)): 44%
- Amount dissolved ([1]; 50 g granules, about 30 gpm, water 66° F. (19° C.), 6 hours (text Example 5)): 60%
- Average peak load [2]: 11.7 (3.4) lb.
- Surface Area [3]: 5.1 m^2/g
